PMC6471485, “Selective Inhibitors of a Human Prolyl Hydroxylase (OGFOD1) Involved in Ribosomal Decoding” (Chemistry (Weinheim an Der Bergstrasse, Germany), 2019)

Target: T1, MINA53 (Homo sapiens, UniProt Q8IUF8)
T1 construct: 1-464 and NO66116-641 were cloned into pFB-LIC-Bse; His (N); made in house; host or cells: Sf9 insect cells
Experiment: MINA53 IC50 determination, RapidFire MS
Assay type: biochemical
Experimental: reactions were quenched after 4 min. KDM4A inhibition was tested as described previously using a formaldehyde dehydrogenase (FDH) assay.[9] JARID1B and JARID1C inhibition was tested as described previously using reported AlphaScreen-based assays.[10] MINA531-464 and NO66116-641 were cloned into pFB-LIC-Bse, and the N-terminal His-tagged proteins were produced in Sf9 insect cells. The MINA53 peptide substrate Rpl27a […]
(Gly31 – Pro49 […]) and the NO66 peptide substrate Rpl8
(Asn205 – Thr224 […]) were synthesized by Peptide Protein
Research Ltd (Fareham, Hampshire, UK) to >95% purity. IC50 determinations were performed in 384-well polypropylene plates (Greiner Bio One, Cat Number 781096), and compound dispenses were performed using an ECHO 550 acoustic dispenser (Labcyte, Sunnyvale, CA). […]
RapidFire integrator software (Agilent). Percent conversion was calculated in Excel, and IC50 curves were generated using Prism v. […]
Assays consisted of enzyme (2 µM), inhibitor (200 µM), MnCl2 (50 µM), and SYPRO Orange (1:5000 dilution), all prepared in 50 mM HEPES, pH 7.5. […] An Opticon thermal cycler (MJ Research Inc) was used to control temperature and measure fluorescence. […]
CPMG Binding Experiments: Binding of the inhibitors to the proteins was monitored using Carr-Purcell-Meiboom-Gill (CPMG)-edited 1H spectra. […]

T1 sequence (Q8IUF8 1-464 limits assumed): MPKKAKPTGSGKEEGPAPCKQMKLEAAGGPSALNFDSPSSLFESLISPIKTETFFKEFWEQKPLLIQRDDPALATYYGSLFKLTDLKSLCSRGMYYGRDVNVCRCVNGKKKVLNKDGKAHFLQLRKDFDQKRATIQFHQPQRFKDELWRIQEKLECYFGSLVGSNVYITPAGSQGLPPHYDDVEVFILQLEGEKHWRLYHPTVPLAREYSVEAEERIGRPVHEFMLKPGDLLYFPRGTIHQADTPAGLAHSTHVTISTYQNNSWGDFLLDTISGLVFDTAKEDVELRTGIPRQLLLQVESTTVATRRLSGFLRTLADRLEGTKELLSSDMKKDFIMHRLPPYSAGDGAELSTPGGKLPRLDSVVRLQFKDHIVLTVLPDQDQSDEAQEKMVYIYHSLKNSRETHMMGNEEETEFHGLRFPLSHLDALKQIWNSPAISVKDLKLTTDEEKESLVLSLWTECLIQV

Cn1c(O)c(C(=O)CCc2ccccc2)c(=O)n(C)c1=O [compound 26]
IC50: > 100 µM

Cn1c(O)c(C(=O)CCc2cccs2)c(=O)n(C)c1=O [compound 42]
IC50: > 100 µM
